This is an account of results in ChEMBL document CHEMBL5523667, “Blood-stage antimalarial activity, favourable metabolic stability and in vivo toxicity of novel piperazine linked 7-chloroquinoline-triazole conjugates” (Eur J Med Chem, 2024).

Calls of active or inactive are those of the source. No cut-off for these calls is given here.

Data set [1] concerns the target T1, Falcipain-3 (Plasmodium falciparum 3D7, UniProt Q8IIL0).
T1 sequence (Q8IIL0 whole entry): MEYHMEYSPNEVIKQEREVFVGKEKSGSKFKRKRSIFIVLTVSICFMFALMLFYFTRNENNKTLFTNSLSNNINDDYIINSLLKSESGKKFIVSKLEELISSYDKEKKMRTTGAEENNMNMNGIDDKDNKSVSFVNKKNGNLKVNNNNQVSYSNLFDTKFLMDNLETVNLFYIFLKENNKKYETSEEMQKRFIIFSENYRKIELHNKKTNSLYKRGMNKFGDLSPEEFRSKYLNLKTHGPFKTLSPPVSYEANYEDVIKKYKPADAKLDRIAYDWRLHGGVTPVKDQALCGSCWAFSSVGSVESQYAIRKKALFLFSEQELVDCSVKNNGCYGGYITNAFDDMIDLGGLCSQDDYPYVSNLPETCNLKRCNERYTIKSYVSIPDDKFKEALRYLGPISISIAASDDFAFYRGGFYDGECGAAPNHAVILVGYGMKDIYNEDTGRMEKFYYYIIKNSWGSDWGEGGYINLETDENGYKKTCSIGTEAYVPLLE
Kind of data set: Inhibition of N-terminal 6His-tagged recombinant Plasmodium falciparum FP3 expressed in Escherichia coli M15 using Z-Phe-Arg-AMC as substrate measured after 30 mins by microplate reader analysis.

Data set [2] relates to Plasmodium falciparum. Kind of data set: Antimalarial activity against ring stage chloroquine-sensitive Plasmodium falciparum 3D7 assessed as growth inhibition incubated for 72 hrs by SYBR Green dye based analysis. Format: functional, organism-based. The settings on record: 3D7, 72 h.
Data set [3] addresses T2, Falcipain-3 (Plasmodium falciparum 3D7) (UniProt Q8IIL0).
T2 sequence (whole entry): T1 sequence (Q8IIL0 whole entry)
Kind of data set: Inhibition of N-terminal 6His-tagged recombinant Plasmodium falciparum FP3 expressed in Escherichia coli M15 using Z-Phe-Arg-AMC as substrate at 10 uM measured after 30 mins by microplate reader analysis relative to control.

Data set [4] is described as follows: Toxicity in mouse assessed as cell apoptosis in spleen at 100 to 200 mg/kg measured after 7 days by hematoxylin and eosin staining based analysis. In kind it is organism-based. The settings on record: in vivo, 168 h, dose 100-200 mg/kg, time 7 day.
The test system of data set [5] is Plasmodium falciparum. Kind of data set: Antimalarial activity against synchronized ring stage Plasmodium falciparum assessed as increase in undigested hemoglobin level at 1 to 4 uM incubated for 20 hrs by absorbance based analysis. As to conditions: dose 1-4 µM. In kind it is functional, organism-based.
In data set [6] the test system is Plasmodium falciparum. Kind of data set: Synergistic antimalarial activity against chloroquine-sensitive Plasmodium falciparum 3D7 assessed as fractional inhibitory concentration incubated for 60 hrs in presence of chloroquine by SYBR Green staining based analysis. In kind it is functional.
A short description of data set [7]: Toxicity against mouse assessed as effect on complete blood count at 100 to 200 mg/kg measured after 7 days by automated hematology analyzer. In kind it is organism-based. The settings on record: in vivo, 168 h, dose 100-200 mg/kg, time 7 day.
The nature of data set [8]: Metabolic stability in mouse liver S9 fraction assessed as intrinsic clearance at 2 uM measured for 90 mins by LC-MS/MS analysis. In kind it is ADME, subcellular. The settings on record: read-out: CLH.
The subject of data set [9] is Plasmodium berghei. Kind of data set: Antimalarial activity against Plasmodium berghei ANKA infected in female BALB/c mouse assessed as reduction in parasitemia at 50 mg/kg, ip measured on day 4 post infection by Giemsa staining based light microscopy (Rvb >17 %). More on the design: scale not given: the % may be the effect or the level left. Format: functional.
Data set [10] deals with Plasmodium falciparum. Kind of data set: Antimalarial activity against synchronized-ring stage chloroquine-sensitive Plasmodium falciparum 3D7 assessed as halt in parasite multiplication by measuring appearance of pyknotic bodies measured after 36 hrs by Giemsa staining based light microscopic analysis. In kind it is functional, organism-based.
Data set [11] has as its system Plasmodium berghei. Kind of data set: Antimalarial activity against Plasmodium berghei ANKA infected in BALB/c mouse assessed as increase in survival at 50 to 100 mg/kg, ip p preadministered with phenylhydrazine for 3 days followed by compound administration and measured after 5 days. Format: functional, organism-based. As to conditions: dose 50-100 mg/kg, time 5.0 day.

For data set [12], the system named is Plasmodium falciparum. Kind of data set: Antimalarial activity against synchronized ring stage Plasmodium falciparum assessed as accumulation of free heme at 1 to 4 uM incubated for 20 hrs by absorbance based analysis. Format: functional, organism-based. The settings on record: dose 1-4 µM.
For data set [13], the target named is T3, Falcipain 2 (Plasmodium falciparum, UniProt Q9N6S8).
T3 sequence (Q9N6S8 whole entry): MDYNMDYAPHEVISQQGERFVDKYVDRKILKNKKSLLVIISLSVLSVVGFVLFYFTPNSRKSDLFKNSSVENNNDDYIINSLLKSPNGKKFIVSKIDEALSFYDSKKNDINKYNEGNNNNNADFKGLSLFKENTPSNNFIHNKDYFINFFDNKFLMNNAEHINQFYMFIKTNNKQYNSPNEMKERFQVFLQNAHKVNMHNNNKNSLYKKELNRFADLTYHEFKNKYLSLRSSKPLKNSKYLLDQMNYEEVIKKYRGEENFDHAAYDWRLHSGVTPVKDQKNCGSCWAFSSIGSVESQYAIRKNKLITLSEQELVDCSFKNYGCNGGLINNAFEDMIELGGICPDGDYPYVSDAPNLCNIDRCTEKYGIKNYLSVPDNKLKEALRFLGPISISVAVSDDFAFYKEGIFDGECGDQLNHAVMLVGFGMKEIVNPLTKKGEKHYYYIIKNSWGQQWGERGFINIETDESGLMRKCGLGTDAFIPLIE
Kind of data set: Competitive inhibition of N-terminal 6His-tagged recombinant Plasmodium falciparum FP2 expressed in Escherichia coli M15 assessed as inhibition constant using Z-Phe-Arg-AMC as substrate measured after 30 mins by microplate reader analysis.

Data set [14] is described as follows: Toxicity in mouse assessed as effect on water intake at 100 to 200 mg/kg measured for 7 days. In kind it is organism-based. As to conditions: in vivo, 168 h, dose 100-200 mg/kg, time 7 day.
The nature of data set [15]: Toxicity in mouse assessed as cell apoptosis in liver at 100 to 200 mg/kg measured after 7 days by hematoxylin and eosin staining based analysis. In kind it is organism-based. As to conditions: in vivo, 168 h, dose 100-200 mg/kg, time 7 day.
In data set [16] the test system is Plasmodium berghei. Kind of data set: Antimalarial activity against Plasmodium berghei ANKA infected in female BALB/c mouse assessed as survival at 50 to 100 mg/kg, ip. In kind it is functional. As to conditions: dose 50-100 mg/kg.
The target of data set [17] is T2, Falcipain-3 (Plasmodium falciparum 3D7). Kind of data set: Binding affinity to N-terminal 6His-tagged recombinant Plasmodium falciparum FP3 expressed in Escherichia coli M15 assessed as dissociation rate constant (Koff) by surface plasmon resonance analysis. Background: In SPR one partner is held on a chip, and binding of the other changes the refractive index at the surface.

Data set [18] in a line: Stability of the compound in simulated gastric fluid at pH 1.2 at 1 uM measured after 120 mins by LC-MS/MS analysis. As to conditions: simulated gi fluid, pH 1.2, 2 h. In kind it is ADME.
A short description of data set [19]: Toxicity in mouse assessed as impairment of short-term memory at 100 mg/kg by novel object recognition test (reference value: 11.87 +/- 3.82 ). In kind it is organism-based. The settings on record: in vivo.
Data set [20] has as its system Plasmodium falciparum. Kind of data set: Antimalarial activity against synchronized-ring stage chloroquine-sensitive Plasmodium falciparum 3D7 assessed as reduction in parasitemia measured upto 60 hrs post-treatment by Giemsa staining based light microscopic analysis (reference value: 3.9 %). On the set-up: scale not given: the % may be the effect or the level left. In kind it is functional.

For data set [21], the system named is Plasmodium falciparum. Kind of data set: Antimalarial activity against synchronized ring stage Plasmodium falciparum assessed as reduction in hemozoin level at 1 to 4 uM incubated for 20 hrs by absorbance based analysis. In kind it is functional, organism-based. As to conditions: dose 1-4 µM.
In data set [22] the test system is Plasmodium berghei. Kind of data set: Antimalarial activity against Plasmodium berghei ANKA infected in female BALB/c mouse assessed as reduction in parasitemia at 100 mg/kg, ip measured on day 4 post infection by Giemsa staining based light microscopy (Rvb >17 %). Format: functional. On the set-up: scale not given: the % may be the effect or the level left.

Take `O=C(Cn1cc(CN2CCN(c3ccnc4cc(Cl)ccc34)CC2)nn1)Nc1cccc([N+](=O)[O-])c1`: the IC50 in data set [1] came to 31.8 µM; in data set [2], 0.96 µM. The inhibition in data set [3] was 28.5%. In addition, the Activity result was “Non-Toxic” in [4]; “Non-Toxic” in [7]; >7% in data set [9]; “Non-Toxic” in data set [14]; “Non-Toxic” in data set [15]; 3.6 in data set [19]. Also, the Activity is 1.03% in [20] and 100% in data set [22]. The result in [5], in data set [10], in data set [11], in data set [12] and in data set [21] was Active. Further, the “fractional inhibitory concentration index (FICI)” value in data set [6] is on record as 0.5. Moreover, the microsomal CLint at 2 µM in data set [8] turned out to be 7.78 µL/min/mg. Besides, the Ki in [13] was 0.527 µM. In addition, in data set [16], the Survival result is reported as “<=30 day”. Also, in data set [17], the K was determined as 0.305 s⁻¹. For the same compound, the Stability entry in [18] is “Stable”.

The term IC50 denotes the concentration needed to halve the response being measured. As a reminder, the inhibition is the relative decrease from the control value, in per cent. What is called Ki is the equilibrium dissociation constant of an inhibitor or competing ligand from its target.
